# Reference: US9340590B2 (priority 2011, dated 2016)
# Read-outs that look alike come from different tables or passages of the source. Positions of bridges follow the written chain, without caps; N, C: chain ends. Non-standard residues stand in square brackets, D forms with d. Residues, ends and D or L forms follow the SMILES beside them. Trp(1-Me) = Cn1cc(C[C@H](N)C(=O)O)c2ccccc21; hCit = NC(=O)NCCCC[C@H](N)C(=O)O
# Legend:
# Assay in all cases: cell-based
# hNav1.5 = hNav1.5 (Homo sapiens, UniProt Q14524); conditions: IonWorks Quattro, read-out: IWQ Use Nav1.5
# hNav1.5, sequence (Q14524 whole entry, looked up): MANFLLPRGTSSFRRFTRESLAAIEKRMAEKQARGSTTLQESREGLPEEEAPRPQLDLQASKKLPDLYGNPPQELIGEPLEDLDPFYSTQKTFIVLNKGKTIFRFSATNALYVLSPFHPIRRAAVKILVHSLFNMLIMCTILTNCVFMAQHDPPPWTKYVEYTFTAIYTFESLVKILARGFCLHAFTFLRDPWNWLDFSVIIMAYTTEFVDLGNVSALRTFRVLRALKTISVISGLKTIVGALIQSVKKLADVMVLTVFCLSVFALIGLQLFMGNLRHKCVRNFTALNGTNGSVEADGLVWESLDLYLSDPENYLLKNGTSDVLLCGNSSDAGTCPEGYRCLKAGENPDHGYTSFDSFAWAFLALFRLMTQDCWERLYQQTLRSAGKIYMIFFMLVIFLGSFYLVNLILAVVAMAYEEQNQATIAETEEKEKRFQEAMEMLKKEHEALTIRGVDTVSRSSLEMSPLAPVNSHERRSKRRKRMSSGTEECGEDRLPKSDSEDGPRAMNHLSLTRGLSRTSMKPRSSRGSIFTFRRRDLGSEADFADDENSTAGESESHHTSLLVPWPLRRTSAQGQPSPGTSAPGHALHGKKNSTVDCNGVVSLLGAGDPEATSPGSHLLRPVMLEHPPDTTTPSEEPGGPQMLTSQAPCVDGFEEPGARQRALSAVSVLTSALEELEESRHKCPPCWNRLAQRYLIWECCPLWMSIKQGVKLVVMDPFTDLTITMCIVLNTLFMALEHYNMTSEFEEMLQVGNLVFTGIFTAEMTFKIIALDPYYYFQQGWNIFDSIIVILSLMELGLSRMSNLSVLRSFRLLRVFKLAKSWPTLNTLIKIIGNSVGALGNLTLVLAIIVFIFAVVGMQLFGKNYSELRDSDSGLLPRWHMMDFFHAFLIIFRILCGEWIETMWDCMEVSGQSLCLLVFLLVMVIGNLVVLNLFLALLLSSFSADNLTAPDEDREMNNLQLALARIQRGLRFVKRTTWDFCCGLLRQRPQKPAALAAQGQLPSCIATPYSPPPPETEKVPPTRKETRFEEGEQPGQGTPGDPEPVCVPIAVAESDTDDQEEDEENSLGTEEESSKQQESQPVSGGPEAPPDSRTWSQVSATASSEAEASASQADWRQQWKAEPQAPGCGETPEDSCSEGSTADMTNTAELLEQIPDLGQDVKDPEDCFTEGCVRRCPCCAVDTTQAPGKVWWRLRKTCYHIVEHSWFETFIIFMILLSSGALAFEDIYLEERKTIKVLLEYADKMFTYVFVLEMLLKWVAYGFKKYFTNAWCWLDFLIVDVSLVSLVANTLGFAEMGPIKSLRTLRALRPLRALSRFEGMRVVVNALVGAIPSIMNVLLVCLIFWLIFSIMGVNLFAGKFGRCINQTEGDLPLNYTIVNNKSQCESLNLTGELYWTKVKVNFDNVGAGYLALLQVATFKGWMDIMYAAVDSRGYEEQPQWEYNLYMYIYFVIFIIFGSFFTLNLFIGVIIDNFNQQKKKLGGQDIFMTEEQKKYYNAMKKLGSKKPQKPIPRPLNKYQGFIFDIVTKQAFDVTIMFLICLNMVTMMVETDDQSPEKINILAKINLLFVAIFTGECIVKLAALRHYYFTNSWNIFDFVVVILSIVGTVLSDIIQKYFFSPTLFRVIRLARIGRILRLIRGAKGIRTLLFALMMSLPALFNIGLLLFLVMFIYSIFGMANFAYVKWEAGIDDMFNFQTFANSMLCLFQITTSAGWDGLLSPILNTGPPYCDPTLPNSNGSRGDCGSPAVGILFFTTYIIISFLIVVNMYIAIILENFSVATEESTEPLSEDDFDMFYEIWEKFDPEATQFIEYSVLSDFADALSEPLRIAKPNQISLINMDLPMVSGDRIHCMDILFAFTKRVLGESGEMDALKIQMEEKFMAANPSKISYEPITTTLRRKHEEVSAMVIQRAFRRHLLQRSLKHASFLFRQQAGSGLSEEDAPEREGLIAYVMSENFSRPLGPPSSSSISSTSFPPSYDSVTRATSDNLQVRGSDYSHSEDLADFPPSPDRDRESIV
# hNav1.7 = hNav1.7 (Homo sapiens, UniProt Q15858); format: cell-based; conditions: IonWorks Quattro, read-out: IWQ Use Nav1.7
# hNav1.3 = hNav1.3 (Homo sapiens, UniProt Q9NY46); conditions: IonWorks Quattro, read-out: IWQ Use Nav1.3
# hNav1.3, sequence (Q9NY46 whole entry, looked up): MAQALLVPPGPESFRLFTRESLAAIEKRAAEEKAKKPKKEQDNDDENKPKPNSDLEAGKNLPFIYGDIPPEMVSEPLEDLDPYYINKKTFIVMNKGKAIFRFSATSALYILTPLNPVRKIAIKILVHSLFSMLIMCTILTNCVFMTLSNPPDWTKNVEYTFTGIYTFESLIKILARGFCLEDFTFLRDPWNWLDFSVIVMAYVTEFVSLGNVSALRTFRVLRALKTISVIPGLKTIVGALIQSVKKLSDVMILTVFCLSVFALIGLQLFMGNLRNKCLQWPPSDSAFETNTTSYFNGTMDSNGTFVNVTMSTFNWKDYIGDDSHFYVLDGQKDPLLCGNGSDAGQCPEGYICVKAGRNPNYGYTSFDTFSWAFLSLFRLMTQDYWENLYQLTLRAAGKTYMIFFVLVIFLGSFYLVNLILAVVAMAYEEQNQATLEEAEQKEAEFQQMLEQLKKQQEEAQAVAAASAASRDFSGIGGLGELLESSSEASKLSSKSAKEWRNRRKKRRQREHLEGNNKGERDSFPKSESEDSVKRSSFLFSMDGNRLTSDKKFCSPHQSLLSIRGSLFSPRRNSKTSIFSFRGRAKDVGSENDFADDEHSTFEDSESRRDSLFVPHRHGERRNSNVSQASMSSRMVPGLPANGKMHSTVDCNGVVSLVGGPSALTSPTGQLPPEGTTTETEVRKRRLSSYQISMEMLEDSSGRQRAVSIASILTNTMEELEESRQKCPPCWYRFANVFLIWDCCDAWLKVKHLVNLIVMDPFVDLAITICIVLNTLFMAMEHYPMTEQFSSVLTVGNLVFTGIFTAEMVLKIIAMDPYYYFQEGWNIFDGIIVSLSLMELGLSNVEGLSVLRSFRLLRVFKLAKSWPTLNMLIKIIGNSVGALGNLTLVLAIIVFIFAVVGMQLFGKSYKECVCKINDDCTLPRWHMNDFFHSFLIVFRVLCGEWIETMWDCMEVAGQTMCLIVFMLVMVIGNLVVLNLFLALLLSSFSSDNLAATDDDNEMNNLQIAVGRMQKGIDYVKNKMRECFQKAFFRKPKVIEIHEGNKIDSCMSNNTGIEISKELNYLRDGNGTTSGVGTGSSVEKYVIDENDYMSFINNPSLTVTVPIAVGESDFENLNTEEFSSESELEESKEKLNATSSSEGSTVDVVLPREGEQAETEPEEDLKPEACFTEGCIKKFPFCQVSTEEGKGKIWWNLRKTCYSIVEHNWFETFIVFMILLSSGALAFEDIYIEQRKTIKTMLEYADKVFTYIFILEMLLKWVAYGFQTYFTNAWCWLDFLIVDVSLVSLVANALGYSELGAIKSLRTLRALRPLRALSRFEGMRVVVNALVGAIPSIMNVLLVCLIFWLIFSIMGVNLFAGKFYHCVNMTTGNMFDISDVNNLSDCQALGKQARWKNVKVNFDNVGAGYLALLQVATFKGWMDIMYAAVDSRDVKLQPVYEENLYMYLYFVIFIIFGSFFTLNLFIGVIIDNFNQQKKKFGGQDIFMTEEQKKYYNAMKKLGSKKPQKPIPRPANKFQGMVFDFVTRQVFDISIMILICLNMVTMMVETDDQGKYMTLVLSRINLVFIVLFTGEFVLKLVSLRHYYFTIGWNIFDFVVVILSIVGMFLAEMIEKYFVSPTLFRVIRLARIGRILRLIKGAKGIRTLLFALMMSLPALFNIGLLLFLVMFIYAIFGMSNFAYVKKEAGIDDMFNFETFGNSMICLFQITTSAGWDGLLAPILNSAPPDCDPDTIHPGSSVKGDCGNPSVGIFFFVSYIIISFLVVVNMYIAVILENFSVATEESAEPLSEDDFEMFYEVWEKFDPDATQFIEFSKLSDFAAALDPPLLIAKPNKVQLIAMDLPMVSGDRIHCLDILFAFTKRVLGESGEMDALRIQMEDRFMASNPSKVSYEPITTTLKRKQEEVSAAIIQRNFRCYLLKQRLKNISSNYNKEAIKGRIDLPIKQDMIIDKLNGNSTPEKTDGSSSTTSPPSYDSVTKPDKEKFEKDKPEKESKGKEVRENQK
structure (smiles),measurement,setting,value
"CC[C@H](C)[C@@H]1NC(=O)[C@@H]2CSSC[C@@H]3NC(=O)[C@H](C(C)C)NC(=O)[C@H](CC(C)C)NC(=O)[C@H](CC(N)=O)NC(=O)[C@@H]4CCCN4C(=O)[C@H](CCCNC(=N)N)NC(=O)[C@H](CSSC[C@H](NC(=O)[C@@H](N)CC(=O)O)C(=O)N[C@@H](CC(C)C)C(=O)NCC(=O)N[C@@H](Cc4ccccc4)C(=O)N[C@@H](CCSC)C(=O)N[C@@H](CCCNC(=N)N)C(=O)N[C@@H](CCCCN)C(=O)N2)NC(=O)[C@H](CSSC[C@@H](C(=O)N[C@@H](CCCCN)C(=O)N[C@@H](Cc2ccc(O)cc2)C(=O)N[C@H](C(=O)N[C@@H](Cc2ccccc2)C(N)=O)C(C)C)NC(=O)[C@H](Cc2c[nH]c4ccccc24)NC(=O)[C@H](CCCCN)NC(=O)[C@H](Cc2cnc[nH]2)NC(=O)[C@H]([C@@H](C)O)NC(=O)[C@H](CCCNC(=N)N)NC(=O)[C@H](CO)NC3=O)NC(=O)[C@H](CCCCN)NC(=O)[C@H](CC(=O)O)NC(=O)[C@H](CCC(=O)O)NC(=O)[C@H](CC(=O)O)NC(=O)[C@@H]2CCCN2C1=O [compound 27] (H-DCLGFMRKCIPDEDKCCRPNLVCSRTHKWCKYVF-NH2; disulfide 2-17, 9-23, 16-30)",IC50,hNav1.5; Use,9.38 µM
same,IC50,hNav1.7; Use,0.26 µM
same,IC50,hNav1.3; Use,0.22 µM
"CC[C@H](C)[C@@H]1NC(=O)[C@@H]2CSSC[C@@H]3NC(=O)[C@H](C(C)C)NC(=O)[C@H](CC(C)C)NC(=O)[C@H](CC(N)=O)NC(=O)[C@@H]4CCCN4C(=O)[C@H](CCCNC(=N)N)NC(=O)[C@H](CSSC[C@H](NC(=O)[C@@H](N)CC(=O)O)C(=O)N[C@@H](CC(C)C)C(=O)NCC(=O)N[C@@H](C)C(=O)N[C@@H](CCSC)C(=O)N[C@@H](CCCNC(=N)N)C(=O)N[C@@H](CCCCN)C(=O)N2)NC(=O)[C@H](CSSC[C@@H](C(=O)N[C@@H](CCCCN)C(=O)N[C@@H](Cc2ccc(O)cc2)C(=O)N[C@H](C(=O)N[C@@H](Cc2ccccc2)C(N)=O)C(C)C)NC(=O)[C@H](Cc2c[nH]c4ccccc24)NC(=O)[C@H](CCCCNC(N)=O)NC(=O)[C@H](Cc2c[nH]cn2)NC(=O)[C@H]([C@@H](C)O)NC(=O)[C@H](CCCNC(=N)N)NC(=O)[C@H](CO)NC3=O)NC(=O)[C@H](CCCCN)NC(=O)[C@H](CC(=O)O)NC(=O)[C@H](CC(N)=O)NC(=O)[C@H](CC(=O)O)NC(=O)[C@@H]2CCCN2C1=O [compound 749] (H-DCLGAMRKCIPDNDKCCRPNLVCSRTH[hCit]WCKYVF-NH2; disulfide 2-17, 9-23, 16-30)",IC50,"hNav1.5; use-dependent block, hNav1.5",20.3 µM
same,IC50,"hNav1.7; use-dependent block, hNav1.7",0.79 µM
same,IC50,"hNav1.3; use-dependent block, hNav1.3",2.3 µM
"CC[C@H](C)[C@@H]1NC(=O)[C@@H]2CSSC[C@@H]3NC(=O)[C@H](C(C)C)NC(=O)[C@H](CC(C)C)NC(=O)[C@H](CC(N)=O)NC(=O)[C@@H]4CCCN4C(=O)[C@H](CCCNC(=N)N)NC(=O)[C@H](CSSC[C@H](NC(=O)[C@@H](N)CC(=O)O)C(=O)N[C@@H](CC(C)C)C(=O)NCC(=O)N[C@@H](CCSC)C(=O)N[C@@H](CCSC)C(=O)N[C@@H](CCCNC(=N)N)C(=O)N[C@@H](CCCCN)C(=O)N2)NC(=O)[C@H](CSSC[C@@H](C(=O)N[C@@H](CCCCN)C(=O)N[C@@H](Cc2cn(C)c4ccccc24)C(=O)N[C@H](C(=O)N[C@@H](Cc2ccccc2)C(N)=O)C(C)C)NC(=O)[C@H](Cc2c[nH]c4ccccc24)NC(=O)[C@H](CCCCN)NC(=O)[C@H](Cc2c[nH]cn2)NC(=O)[C@H]([C@@H](C)O)NC(=O)[C@H](CCCNC(=N)N)NC(=O)[C@H](CO)NC3=O)NC(=O)[C@H](CCCCN)NC(=O)[C@H](CC(=O)O)NC(=O)[C@H](CC(N)=O)NC(=O)[C@H](CC(=O)O)NC(=O)[C@@H]2CCCN2C1=O [compound 693] (H-DCLGMMRKCIPDNDKCCRPNLVCSRTHKWCK[Trp(1-Me)]VF-NH2; disulfide 2-17, 9-23, 16-30)",IC50,"hNav1.5; use-dependent protocol, hNav1.5",> 5 µM
same,IC50,"hNav1.7; use-dependent protocol, hNav1.7",0.046 µM
same,IC50,"hNav1.3; use-dependent protocol, hNav1.3",0.1 µM
